The target of assay [1] is GST-JNK2 (Homo sapiens, UniProt P45984). The assay can be described thus: JNK2 in vitro assay (33P incorporation into c-Jun, SPA). The conditions noted are these: recombinant pre-activated GST-JNK2, biotinylated GST-c-Jun, 2 μM 33γ-ATP, 120 min RT. It is filed as biochemical. The procedure:
(§1) JNK2 and -3 in vitro Assays:
(§2) The phosphorylation of c-jun by JNK2 or JNK3 may be followed by monitoring the incorporation of ^33P into c-jun following the protocol below. The inhibitory activity of the compounds according to formula I, in respect of c-jun phosphorylation through JNK, is determined by calculating the phosphorylation activity of a JNK in the presence or absence of the test compounds according to formula I.
(§3) JNK3 and/or -2 assays are performed in 96 well MTT plates: incubation of 0.5 μg of recombinant, pre-activated GST-JNK3 or GST-JNK2 with 1 μg of recombinant, biotinylated GST-c-Jun and 2 μM ^33γ-ATP (2 nCi/μl), in the presence or absence of compounds according to formula I and in a reaction volume of 50 μl containing 50 mM Tris-HCl, pH 8.0; 10 mM MgCl2; 1 mM Dithiothreitol, and 100 μM NaVO4. The incubation is performed for 120 min. at R.T and stopped upon addition of 200 μl of a solution containing 250 μg of Streptavidine-coated SPA beads (Amersham, Inc.)*, 5 mM EDTA, 0.1% Triton X-100 and 50 μM ATP, in phosphate saline buffer.
(§4) After incubation for 60 minutes at RT, beads are sedimented by centrifugation at 1500×g for 5 minutes, resuspended in 200 μl of PBS containing 5 mM EDTA, 0.1% Triton X-100 and 50 μM ATP and the radioactivity measured in a scintillation β counter, following sedimentation of the beads as described above. By replacing biotinylated GST-c Jun with biotinylated GST-1ATF2 or biotinylated myelin basic protein, this assay may also be used to measure inhibition of pre-activated p38 and ERK MAP Kinases, respectively.
(§5) The values indicated in respect of JNK2 and 3 refer to the IC50 (μM), i.e. the amount necessary to achieve 50% inhibition either of JNK3 or JNK2.

Assay [2] concerns the target GST-JNK3 (Homo sapiens, UniProt P53779). Description: JNK3 in vitro assay (33P incorporation into c-Jun, SPA). The conditions noted are these: recombinant pre-activated GST-JNK3, biotinylated GST-c-Jun, 2 μM 33γ-ATP, 120 min RT. It is filed as biochemical. The procedure:
as §1, §2, §3, §4, §5

Structures are written as SMILES.

Chain of GST-JNK3 (P53779 whole entry): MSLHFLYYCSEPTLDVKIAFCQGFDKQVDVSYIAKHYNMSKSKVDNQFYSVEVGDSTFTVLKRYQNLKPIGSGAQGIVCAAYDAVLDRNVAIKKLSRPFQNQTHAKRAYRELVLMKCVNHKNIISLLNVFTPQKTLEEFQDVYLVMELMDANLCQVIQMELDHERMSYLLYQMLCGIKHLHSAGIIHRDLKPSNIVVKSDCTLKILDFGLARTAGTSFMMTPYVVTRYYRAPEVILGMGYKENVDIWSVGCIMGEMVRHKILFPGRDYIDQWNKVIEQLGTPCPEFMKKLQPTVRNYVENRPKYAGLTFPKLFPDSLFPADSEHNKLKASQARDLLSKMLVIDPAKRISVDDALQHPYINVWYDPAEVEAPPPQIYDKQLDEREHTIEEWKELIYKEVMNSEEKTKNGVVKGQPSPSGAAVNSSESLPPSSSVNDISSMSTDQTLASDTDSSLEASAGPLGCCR
Chain of GST-JNK2 (P45984 whole entry): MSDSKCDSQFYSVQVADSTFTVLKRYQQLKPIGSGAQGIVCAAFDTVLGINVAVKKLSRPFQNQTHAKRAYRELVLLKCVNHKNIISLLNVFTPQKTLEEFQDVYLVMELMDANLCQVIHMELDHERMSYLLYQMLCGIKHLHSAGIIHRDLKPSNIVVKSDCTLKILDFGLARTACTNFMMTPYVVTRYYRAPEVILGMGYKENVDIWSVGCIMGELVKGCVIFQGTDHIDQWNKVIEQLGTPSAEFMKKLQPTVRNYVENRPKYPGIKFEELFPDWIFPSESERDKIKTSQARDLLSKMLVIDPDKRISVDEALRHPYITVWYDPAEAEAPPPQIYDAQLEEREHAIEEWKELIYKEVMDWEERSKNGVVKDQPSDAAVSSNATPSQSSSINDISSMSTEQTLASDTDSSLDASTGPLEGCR

As to `O=C(NCc1cccc(S(=O)(=O)N2CCC(Nc3cccc(S(=O)(=O)C(F)(F)F)c3)CC2)c1)c1ccc(Cl)cc1` [Example 3, 4-chloro-N-{3-[(4-{3-[(trifluoromethyl)sulfonyl]anilino}-1-piperidinyl)sulfonyl]benzyl}benzamide], the half-maximal inhibitory concentration (IC50) (as a rule, the concentration that inhibits the measured activity by half) was less than 700 nM in assay [1] and less than 400 nM in assay [2].

On to `O=C(NCc1ccc(S(=O)(=O)N2CCC(NCCc3cccc(C(F)(F)F)c3)CC2)cc1)c1ccc(Cl)cc1` [Example 11, 4-chloro-N-(4-{[4-({2-[3-(trifluoromethyl)phenyl]ethyl}amino)-1-piperidinyl]sulfonyl}benzyl)benzamide], for which the IC50 in assay [1] was less than 700 nM; in assay [2], less than 400 nM.

In the case of `CCCCCCNC1CCN(S(=O)(=O)c2ccc(NC(=O)c3ccc(Cl)cc3)cc2)C1` (centres unmarked) [Example 28, 4-chloro-N-(4-{[3-(hexylamino)-1-pyrrolidinyl]sulfonyl}phenyl)benzamide], the IC50 in assay [1] was less than 700 nM; in assay [2], less than 400 nM.

In the case of `O=C(NCc1ccc(S(=O)(=O)N2CCC(NCCc3cccc(C(F)(F)F)c3)C2)cc1)c1ccc(Cl)cc1` (centres unmarked) [Example 31, 4-chloro-N-(4-{[3-({2-[3-(trifluoromethyl)phenyl]ethyl)amino)-1-pyrrolidinyl]sulfonyl}benzyl)benzamide], the IC50 in assay [1] was less than 700 nM; in assay [2], less than 400 nM.

The record behind these values is US7417058B2, “Pharmaceutically active benzsulfonamide derivatives as inhibitors of protein junkinases” (Laboratoires Serono S.A., priority 2000, dated 2008).
